Reference: US9309262B2 (ABT Holding Company, priority 2013, dated 2016)

target: T1, human 5HT2c receptor (VSV isoform) (Homo sapiens, UniProt P28335, I156V/I160V/N158S); assay: cell-based
T1 construct: expressed in transfected cells; host or cells: HEK 293 EBNA, stably transfected
T1 sequence (P28335 33-458 I156V/N158S/I160V): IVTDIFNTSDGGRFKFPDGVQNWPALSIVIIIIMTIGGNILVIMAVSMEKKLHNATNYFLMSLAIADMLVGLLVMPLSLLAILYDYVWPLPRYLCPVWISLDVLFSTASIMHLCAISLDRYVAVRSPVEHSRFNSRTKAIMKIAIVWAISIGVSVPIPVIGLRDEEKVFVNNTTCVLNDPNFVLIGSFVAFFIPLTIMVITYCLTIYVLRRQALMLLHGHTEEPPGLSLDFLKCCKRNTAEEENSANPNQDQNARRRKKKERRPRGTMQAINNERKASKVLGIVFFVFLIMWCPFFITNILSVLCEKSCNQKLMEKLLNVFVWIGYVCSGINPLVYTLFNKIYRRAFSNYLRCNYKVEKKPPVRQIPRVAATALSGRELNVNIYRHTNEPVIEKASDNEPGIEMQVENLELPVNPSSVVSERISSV

| Compound | EC50 |
| --- | --- |
| CCn1ccc2sc3c(c21)CCNCC3 [Example 1, 3,4,5,6,7,8-Hexahydro-9-thia-3,6-diaza-cyclopenta[a]alazulene] | < 10 nM |
| c1ccc(Cn2ccc3sc4c(c32)CCNCC4)cc1 [Example 4, 3-Benzyl-3,4,5,6,7,8-hexahydro-9-thia-3,6-diaza-cyclopenta[a]azulene] | < 10 nM |
| Clc1ccc(-n2ccc3sc4c(c32)CCNCC4)cc1 [Example 5, 3-(4-Chloro-phenyl)-3,4,5,6,7,8-hexahydro-9-thia-3,6-diaza-cyclopenta[a]azulene] | < 1000 nM |
| Cc1ccccc1Cn1ccc2sc3c(c21)CCNCC3 [Example 6, 3-(2-Methyl-benzyl)-3,4,5,6,7,8-hexahydro-9-thia-3,6-diaza-cyclopenta[a]azulene] | < 10 nM |
| Cc1cccc(Cn2ccc3sc4c(c32)CCNCC4)c1 [Example 7, 3-(3-Methyl-benzyl)-3,4,5,6,7,8-hexahydro-9-thia-3,6-diaza-cyclopenta[a]azulene] | < 10 nM |
| Cc1ccc(Cn2ccc3sc4c(c32)CCNCC4)cc1 [Example 8, 3-(4-Methyl-benzyl)-3,4,5,6,7,8-hexahydro-9-thia-3,6-diaza-cyclopenta[a]azulene] | < 10 nM |
| Clc1cccc(Cn2ccc3sc4c(c32)CCNCC4)c1 [Example 10] | < 10 nM |
| Clc1ccc(Cn2ccc3sc4c(c32)CCNCC4)cc1 [Example 11] | < 10 nM |
| Cc1ccc(-n2ccc3sc4c(c32)CCNCC4)cc1 [Example 13, 3-p-Tolyl-3,4,5,6,7,8-hexahydro-9-thia-3,6-diaza-cyclopenta[a]azulene] | < 100 nM |
| COc1ccc(-n2ccc3sc4c(c32)CCNCC4)cc1 [Example 14, 3-(4-Methoxy-phenyl)-3,4,5,6,7,8-hexahydro-9-thia-3,6-diaza-cyclopenta[a]azulene] | < 100 nM |
| Cc1cccc(-n2ccc3sc4c(c32)CCNCC4)c1 [Example 15, 3-m-Tolyl-3,4,5,6,7,8-hexahydro-9-thia-3,6-diaza-cyclopenta[a]azulene] | < 100 nM |
| COc1cccc(-n2ccc3sc4c(c32)CCNCC4)c1 [Example 16, 3-(3-Methoxy-phenyl)-3,4,5,6,7,8-hexahydro-9-thia-3,6-diaza-cyclopenta[a]azulene] | < 1000 nM |
| Clc1cccc(-n2ccc3sc4c(c32)CCNCC4)c1 [Example 17, 3-(3-Chloro-phenyl)-3,4,5,6,7,8-hexahydro-9-thia-3,6-diaza-cyclopenta[a]azulene] | < 100 nM |
| COc1cccc(Cn2ccc3sc4c(c32)CCNCC4)c1 [Example 18, 3-(3-Methoxy-benzyl)-3,4,5,6,7,8-hexahydro-9-thia-3,6-diaza-cyclopenta[a]azulene] | < 10 nM |
| COc1ccc(Cn2ccc3sc4c(c32)CCNCC4)cc1 [Example 19, 3-(4-Methoxy-benzyl)-3,4,5,6,7,8-hexahydro-9-thia-3,6-diaza-cyclopenta[a]azulene] | < 100 nM |
| c1cn(CC2CCCCC2)c2c3c(sc12)CCNCC3 [Example 20, 3-Cyclohexylmethyl-3,4,5,6,7,8-hexahydro-9-thia-3,6-diaza-cyclopenta[a]azulene] | < 100 nM |
| c1ccc2c(Cn3ccc4sc5c(c43)CCNCC5)cccc2c1 [Example 21, 3-Naphthalen-1-ylmethyl-3,4,5,6,7,8-hexahydro-9-thia-3,6-diaza-cyclopenta[a]azulene] | < 10 nM |
| Clc1cccc(Cn2ccc3sc4c(c32)CCNCC4)c1Cl [Example 22, 3-(2,3-Dichloro-benzyl)-3,4,5,6,7,8-hexahydro-9-thia-3,6-diaza-cyclopenta[a]azulene] | < 10 nM |
| Clc1ccc(Cn2ccc3sc4c(c32)CCNCC4)cc1Cl [Example 23, 3-(3,4-Dichloro-benzyl)-3,4,5,6,7,8-hexahydro-9-thia-3,6-diaza-cyclopenta[a]azulene] | < 10 nM |
| c1cnc2c(Cn3ccc4sc5c(c43)CCNCC5)cccc2c1 [Example 24, 3-Quinolin-8-ylmethyl-3,4,5,6,7,8-hexahydro-9-thia-3,6-diaza-cyclopenta[a]azulene] | < 100 nM |
| c1cc(Cn2ccc3sc4c(c32)CCNCC4)c2ccncc2c1 [Example 25, 3-Isoquinolin-5-ylmethyl-3,4,5,6,7,8-hexahydro-9-thia-3,6-diaza-cyclopenta[a]azulene] | < 10 nM |
| c1ccc2c(Cn3ccc4sc5c(c43)CCNCC5)nccc2c1 [Example 26, 3-Isoquinolin-1-ylmethyl-3,4,5,6,7,8-hexahydro-9-thia-3,6-diaza-cyclopenta[a]azulene] | < 10 nM |
